Test results reported in publication PMC8708875 (Pharmaceutics, 2021).

Experiments:
[1] = system: Akt phosphorylation (pAkt, S473); assay: Akt phosphorylation by Western blotting in differentiated C2C12 cells; type: cell-based, mouse; settings: peptides 100 µM, insulin 100 nM, Western blot, three independent experiments
Description: C2C12 cells were used as a well-described model of skeletal muscle to evaluate the effect of peptides in gene expression, cell signaling, and glucose uptake. These cells were kindly provided by Prof. Patricia Brum, School of Physical Education and Prof. Anselmo Moriscot, Biomedical Science Institute, University of São Paulo, São Paulo, Brazil. C2C12 cells were cultured and maintained in high glucose Dulbecco’s modified Eagle’s medium (DMEM; Thermo Fisher Scientific, São Paulo, SP, Brazil) supplemented with 10% fetal bovine serum (FBS), 100 U/mL penicillin, and […] streptomycin in a humidified atmosphere of 5% CO2 at 37 °C. The cells were used in low pass (between passages 2 and 4) for all experiments to maintain the potential for differentiation of cultures. […]
Western blotting experiments were performed to evaluate the expression levels of specific proteins. […] Western blot bands were visualized with Super-Signal West Pico Chemiluminescent substrate (Thermo Scientific) using the ChemiDoc™ MP Imaging System (BioRad, Hercules, CA, USA), and quantified using ImageJ 1.49 software. All results are expressed as the means ± standard error of the mean (SEM). […] Data were statistically analyzed with GraphPad Prism software (GraphPad Software Inc, San Diego, CA, USA). […]

[2] = system: differentiated C2C12 myotubes; assay: qPCR gene expression in differentiated C2C12 myotubes; type: cell-based, mouse; settings: Ric peptides 100 µM, insulin positive control, qPCR normalised to GAPDH, control = 1, mean ± SEM

Substance | phosphorylation of Akt (pAkt over total Akt) [1] | relative expression of Myosin, light chain 1 (MYL1) [2]
Insulin | increased | 6.18 ± 1.07
LASVSTVLTSKYR [Ric4, intracellular peptide derived from hemoglobin alpha subunit, last 13 C-terminal amino acids] | activated | 3.58 ± 1.07
